According to patent US20060089263A1, “2-Propenal and related enal compounds for controlling plant pests and weeds in soil” (priority 2004, published 2006):

Experiments:
Assay type in all cases: in vivo
"Young" soybean = assay: Growth response of soybean plants in treated soil (greenhouse)
From the text: (§1) The nematicidal properties of 2-propenal (CH2═CH—CHO; acrolein), 2-butenal (CH3—CH═CH—CHO; crotonaldehyde), and trans 2-pentenal (CH3—CH2—CH═CH—CHO) were studied in greenhouse experiments with soil severely infected with the reniform nematode (Rotylenchulus reniformis). The soil was collected from a cotton field and was a sandy loam with pH 6.2, organic matter content <1.0% and cation exchange capacity <10 meq/100 gms soil. The soil was mixed 50:50 by volume, with washed fine siliceous river sand and the mixture, here-from referred to as soil. The moist soil (50% field capacity) was apportioned in 1 Kg quantities contained in 4L polyethylene bags. The compounds were applied to the soil in the bags, and after thorough mixing the treated soil was transferred to 1 L capacity, 4-inch-diam. plastic (PVC) pots which were then covered with a polyethylene bag (1 mil) held tightly to the outside wall of the pot with a rubber band. The covered pots were placed on a greenhouse table and after 10 days the bags were removed and soil samples for nematode analyses were collected from each pot. The pots were planted with “Young” soybean (5 seed/pot.) Soybean plants were grown for 8 weeks when they were removed, soil samples taken for nematode analysis (salad bowl incubation technique), and data were collected on shoot height, and fresh weights of shoots and roots. The relative health of the root systems was determined using a subjective scale. […] Values between 1 and 5 represented intermediate degrees of damage. The roots were incubated to assess nematode populations in them.
(§2) Emulsifiable concentrates (EC's) were prepared for all three compounds containing 10% (w/w) emulsogen. The EC's were used to make aqueous emulsions containing 2.5% active ingredient; these emulsions were then used to deliver the compounds to soil. Each compound was delivered using the following rates: 0, 25, 50, 75, 100, 125, 150, 175, 200, 225, 250, 275, 300 mgs/kg soil. In every experiment there were 6 replications (pots) per treatment arranged in a randomized complete block design.
(§3) All data were analyzed according to standard procedures for analysis of variance. Fisher's Least Significant Differences (FLSD) were calculated when F values were significant and are included in the graphs. Curvilineal analyses were conducted according to standard procedures with the TableCurve 2D program.

[1] = tested on: yellow nutsedge (Cyperus esculentus); assay: Greenhouse herbicidal experiment, post-emergence; conditions: applied post-emergence
Protocol: Herbicidal properties of the compounds were studied as described for experiments on nematicidal activities. The soil was from a cotton field with a silt loam soil from a cotton field with similar properties as the one used for the nematode experiments. It was infested with a variety of weeds and was artificially seeded with 5 yellow nutsedge tubercles/pot. Nutsedge plants and other weeds were grown for a month, and the pots were then treated with 2-propenal and covered with polyethylene bags for 10 days, when the bags were removed and weed counts taken at two weeks and one month after treatment. Rates used in these experiments were: 0, 100, 200, 300, 400, 500, 600, 700, and 800 mgs/kg soil.
as §3

[2] = tested on: reniform nematode (Rotylenchulus reniformis); assay: Greenhouse nematicidal experiment, soil infested with reniform nematode; conditions: pre-plant samples
From the text: as §1, §2, §3

tomato plant = assay: Tomato plant growth study, vigor rating; set-up: key to TOMATO VIGOR 1-5SCALE: 1 = very little vigor, 5 = very vigorous
From the text: This example together with the data in Table 1 includes results of a study conducted to test the affects of acrolein on tomato plant growth. The first column in Table 1 includes, from left to right the treatment number, the treatment name, the rate of application, and the unit for that rate. The treatment name includes two separate treatment ingredients for each treatment number. The top name of each treatment name lists the test additive, and the bottom listing of the treatment name lists any additional herbicide applied in that particular treatment number. For example, in treatment number 5, methyl bromide was applied with a sandea herbicide. The rate and the rate unit headings, for this study, lists the amount of application of the treatment ingredients in pounds of active ingredients per acre (lb ai/a). Column 2 of Table 1 lists a vigor rating for each tomato plant on a scale of 1 to 5, wherein a 1 rating indicates a tomato plant with very little vigor, and a 5 rating indicates a very vigorous tomato plant. Column 2 lists vigor scale ratings for each treatment number taken on Aug. 17, 2005, and column 3 lists a vigor rating for each treatment taken on Aug. 25, 2005.

microbivorous nematodes = assay: Greenhouse nematicidal experiment, microbivorous nematodes in soil and roots
From the text: as §1, §2, §3

2-propenal
shoot height ("Young" soybean; dosages above 50 mgs): gradual decline
shoot weights ("Young" soybean; dosages above 50 mgs): gradual decline
root weights ("Young" soybean; dosages higher than 175 mgs): declined
shoot height ("Young" soybean; dosages ≦50 mgs): Sharp increases
shoot weights ("Young" soybean; dosages ≦50 mgs): Sharp increases
root weights ("Young" soybean; rates up to 175 mgs): increased gradually
root condition ("Young" soybean; subjective scale 1 to 5, rates 25-300 mgs/kg soil): improved by all but the highest dose
doses resulting in practical elimination of the weed [1]: ≥ 200 mgs/kgs soil
populations of reniform nematodes in pre-plant samples ([2]; 0-300 mgs/kg soil): reduced exponentially
reduction in populations of reniform nematodes ([2]; 50 mgs/kg soil equivalent to 100 lbs/A): > 90%
TOMATO VIGOR 1-5SCALE (tomato plant; 17/Aug/05, DRIP 200 lb ai/a, no herbicide): 3.000
TOMATO VIGOR 1-5SCALE (tomato plant; 17/Aug/05, DRIP 200 lb ai/a, with SANDEA 0.25 lb ai/a): 3.000
TOMATO VIGOR 1-5SCALE (tomato plant; 17/Aug/05, DRIP 200 lb ai/a, with V-10142 0.25 lb ai/a): 3.000
TOMATO VIGOR 1-5SCALE (tomato plant; 17/Aug/05, DRIP 400 lb ai/a, no herbicide): 3.000
TOMATO VIGOR 1-5SCALE (tomato plant; 17/Aug/05, DRIP 400 lb ai/a, with SANDEA 0.25 lb ai/a): 2.750
TOMATO VIGOR 1-5SCALE (tomato plant; 17/Aug/05, DRIP 400 lb ai/a, with V-10142 0.25 lb ai/a): 3.000
TOMATO VIGOR 1-5SCALE (tomato plant; 17/Aug/05, DRIP 600 lb ai/a, no herbicide): 1.250
TOMATO VIGOR 1-5SCALE (tomato plant; 17/Aug/05, DRIP 600 lb ai/a, with SANDEA 0.25 lb ai/a): 1.500
TOMATO VIGOR 1-5SCALE (tomato plant; 17/Aug/05, DRIP 600 lb ai/a, with V-10142 0.25 lb ai/a): 2.250
TOMATO VIGOR 1-5SCALE (tomato plant; 17/Aug/05, INJECT 200 lb ai/a, no herbicide, listed as ACROLEIN): 4.250
TOMATO VIGOR 1-5SCALE (tomato plant; 17/Aug/05, INJECT 200 lb ai/a, no herbicide, listed as acrolein): 4.25
TOMATO VIGOR 1-5SCALE (tomato plant; 17/Aug/05, INJECT 200 lb ai/a, with SANDEA 0.25 lb ai/a): 4.000
TOMATO VIGOR 1-5SCALE (tomato plant; 17/Aug/05, INJECT 200 lb ai/a, with V-10142 0.25 lb ai/a): 4.000
TOMATO VIGOR 1-5SCALE (tomato plant; 17/Aug/05, INJECT 400 lb ai/a, no herbicide, listed as ACROLEIN): 4.000
TOMATO VIGOR 1-5SCALE (tomato plant; 17/Aug/05, INJECT 400 lb ai/a, no herbicide, listed as acrolein): 4.0
TOMATO VIGOR 1-5SCALE (tomato plant; 17/Aug/05, INJECT 400 lb ai/a, with SANDEA 0.25 lb ai/a): 3.000
TOMATO VIGOR 1-5SCALE (tomato plant; 17/Aug/05, INJECT 400 lb ai/a, with V-10142 0.25 lb ai/a): 4.000
TOMATO VIGOR 1-5SCALE (tomato plant; 17/Aug/05, INJECT 600 lb ai/a, no herbicide): 3.250
TOMATO VIGOR 1-5SCALE (tomato plant; 17/Aug/05, INJECT 600 lb ai/a, with SANDEA 0.25 lb ai/a): 3.250
TOMATO VIGOR 1-5SCALE (tomato plant; 17/Aug/05, INJECT 600 lb ai/a, with V-10142 0.25 lb ai/a): 3.250
TOMATO VIGOR 1-5SCALE (tomato plant; 25/Aug/05, DRIP 200 lb ai/a, no herbicide): 4.000
TOMATO VIGOR 1-5SCALE (tomato plant; 25/Aug/05, DRIP 200 lb ai/a, with SANDEA 0.25 lb ai/a): 3.750
TOMATO VIGOR 1-5SCALE (tomato plant; 25/Aug/05, DRIP 200 lb ai/a, with V-10142 0.25 lb ai/a): 3.850
TOMATO VIGOR 1-5SCALE (tomato plant; 25/Aug/05, DRIP 400 lb ai/a, no herbicide): 3.250
TOMATO VIGOR 1-5SCALE (tomato plant; 25/Aug/05, DRIP 400 lb ai/a, with SANDEA 0.25 lb ai/a): 3.500
TOMATO VIGOR 1-5SCALE (tomato plant; 25/Aug/05, DRIP 400 lb ai/a, with V-10142 0.25 lb ai/a): 3.250
TOMATO VIGOR 1-5SCALE (tomato plant; 25/Aug/05, DRIP 600 lb ai/a, no herbicide): 2.500
TOMATO VIGOR 1-5SCALE (tomato plant; 25/Aug/05, DRIP 600 lb ai/a, with SANDEA 0.25 lb ai/a): 2.500
TOMATO VIGOR 1-5SCALE (tomato plant; 25/Aug/05, DRIP 600 lb ai/a, with V-10142 0.25 lb ai/a): 2.900
TOMATO VIGOR 1-5SCALE (tomato plant; 25/Aug/05, INJECT 200 lb ai/a, no herbicide, listed as ACROLEIN): 4.750
TOMATO VIGOR 1-5SCALE (tomato plant; 25/Aug/05, INJECT 200 lb ai/a, no herbicide, listed as acrolein): 4.75
TOMATO VIGOR 1-5SCALE (tomato plant; 25/Aug/05, INJECT 200 lb ai/a, with SANDEA 0.25 lb ai/a): 4.750
TOMATO VIGOR 1-5SCALE (tomato plant; 25/Aug/05, INJECT 200 lb ai/a, with V-10142 0.25 lb ai/a): 4.750
TOMATO VIGOR 1-5SCALE (tomato plant; 25/Aug/05, INJECT 400 lb ai/a, no herbicide, listed as ACROLEIN): 5.000
TOMATO VIGOR 1-5SCALE (tomato plant; 25/Aug/05, INJECT 400 lb ai/a, no herbicide, listed as acrolein): 5.0
TOMATO VIGOR 1-5SCALE (tomato plant; 25/Aug/05, INJECT 400 lb ai/a, with SANDEA 0.25 lb ai/a): 4.250
TOMATO VIGOR 1-5SCALE (tomato plant; 25/Aug/05, INJECT 400 lb ai/a, with V-10142 0.25 lb ai/a): 4.650
TOMATO VIGOR 1-5SCALE (tomato plant; 25/Aug/05, INJECT 600 lb ai/a, no herbicide): 4.250
TOMATO VIGOR 1-5SCALE (tomato plant; 25/Aug/05, INJECT 600 lb ai/a, with SANDEA 0.25 lb ai/a): 4.000
TOMATO VIGOR 1-5SCALE (tomato plant; 25/Aug/05, INJECT 600 lb ai/a, with V-10142 0.25 lb ai/a): 3.750
populations of microbivorous nematodes in pre-plant samples (microbivorous nematodes; 0-300 mgs/kg soil, pre-plant samples): reduced exponentially
microbivorous populations at the end of the experiment (microbivorous nematodes; 75 mg rate): stimulated
reduction in populations of microbivorous nematodes (microbivorous nematodes; 50 mgs/kg soil equivalent to 100 lbs/A, pre-plant samples): > 90%
microbivorous populations at the end of the experiment (microbivorous nematodes; applications of ≦100 mgs/kg soil, soil and root samples): recovered
